Laboratory results taken from ChEMBL document CHEMBL1153245, “A profile of the in vitro anti-tumor activity of imidazolium-based ionic liquids” (2010).

Key:
Format in all cases: functional
[1] = tested on: SK-OV-3; assay: Anticancer activity against human SKOV3 cells after 48 hrs by sulforhodamine B assay; conditions: for CC50: read-out: LC50 (the source's name)
[2] = tested on: MOLT-4; assay: Anticancer activity against human MOLT4 cells assessed cell growth at 10 uM after 48 hrs by sulforhodamine B assay relative to control
[3] = tested on: SN12C; assay: Anticancer activity against human SN12C cells assessed cell growth at 10 uM after 48 hrs by sulforhodamine B assay relative to control
[4] = tested on: OVCAR-4; assay: Anticancer activity against human OVCAR4 cells after 48 hrs by sulforhodamine B assay; conditions: for CC50: read-out: LC50 (the source's name)
[5] = tested on: SR; assay: Anticancer activity against human SR cells after 48 hrs by sulforhodamine B assay; conditions: for CC50: read-out: LC50 (the source's name)
[6] = tested on: HCT-15; assay: Anticancer activity against human HCT15 cells after 48 hrs by sulforhodamine B assay; conditions: for CC50: read-out: LC50 (the source's name)
[7] = tested on: MCF7; assay: Anticancer activity against human MCF7 cells after 48 hrs by sulforhodamine B assay
[8] = tested on: OVCAR-8; assay: Anticancer activity against human OVCAR8 cells assessed cell growth at 10 uM after 48 hrs by sulforhodamine B assay relative to control
[9] = tested on: MDA-MB-435; assay: Anticancer activity against human MDA-MB-435 cells after 48 hrs by sulforhodamine B assay; conditions: Homo sapiens, MDA-MB-435, 48 h; for CC50: read-out: LC50 (the source's name)
[10] = tested on: BT-549; assay: Anticancer activity against human BT549 cells assessed cell growth at 10 uM after 48 hrs by sulforhodamine B assay relative to control
[11] = tested on: UACC-62; assay: Anticancer activity against human UACC62 cells after 48 hrs by sulforhodamine B assay; conditions: Homo sapiens, UACC-62, 48 h
[12] = tested on: NCI-H226; assay: Anticancer activity against human NCI-H226 cells after 48 hrs by sulforhodamine B assay; conditions: Homo sapiens, NCI-H226, 48 h
[13] = tested on: U-251; assay: Anticancer activity against human U251 cells assessed cell growth at 10 uM after 48 hrs by sulforhodamine B assay relative to control
[14] = tested on: RXF 393; assay: Anticancer activity against human RXF393 cells after 48 hrs by sulforhodamine B assay; conditions: Homo sapiens, RXF 393, 48 h
[15] = tested on: HCT-15; assay: Anticancer activity against human HCT15 cells assessed cell growth at 10 uM after 48 hrs by sulforhodamine B assay relative to control
[16] = tested on: NCI-H522; assay: Anticancer activity against human NCI-H522 cells after 48 hrs by sulforhodamine B assay
[17] = tested on: A498; assay: Anticancer activity against human A498 cells assessed cell growth at 10 uM after 48 hrs by sulforhodamine B assay relative to control
[18] = tested on: MDA-MB-468; assay: Anticancer activity against human MDA-MB-468 cells after 48 hrs by sulforhodamine B assay
[19] = tested on: OVCAR-3; assay: Anticancer activity against human OVCAR-3 cells assessed cell growth at 10 uM after 48 hrs by sulforhodamine B assay relative to control
[20] = tested on: NCI-H460; assay: Anticancer activity against human NCI-H460 cells after 48 hrs by sulforhodamine B assay; conditions: Homo sapiens, NCI-H460, 48 h
[21] = tested on: A549; assay: Anticancer activity against human A549 cells after 48 hrs by sulforhodamine B assay; conditions: Homo sapiens, A549, 48 h
[22] = tested on: A498; assay: Anticancer activity against human A498 cells after 48 hrs by sulforhodamine B assay; conditions: Homo sapiens, A498, 48 h; for CC50: read-out: LC50 (the source's name)
[23] = tested on: SF-539; assay: Anticancer activity against human SF539 cells assessed cell growth at 10 uM after 48 hrs by sulforhodamine B assay relative to control
[24] = tested on: ACHN; assay: Anticancer activity against human ACHN cells after 48 hrs by sulforhodamine B assay
[25] = tested on: COLO 205; assay: Anticancer activity against human COLO205 cells assessed cell growth at 10 uM after 48 hrs by sulforhodamine B assay relative to control
[26] = tested on: SF-295; assay: Anticancer activity against human SF295 cells assessed cell growth at 10 uM after 48 hrs by sulforhodamine B assay relative to control
[27] = Anticancer activity against human […] cells after 48 hrs by sulforhodamine B assay; conditions: Homo sapiens, RPMI8266, 48 h; for CC50: read-out: LC50 (the source's name)
[28] = tested on: MDA-MB-231; assay: Anticancer activity against human MDA-MB-231 cells after 48 hrs by sulforhodamine B assay; conditions: for CC50: read-out: LC50 (the source's name)
[29] = tested on: UACC-257; assay: Anticancer activity against human UACC257 cells after 48 hrs by sulforhodamine B assay
[30] = tested on: EKVX; assay: Anticancer activity against human EKVX cells after 48 hrs by sulforhodamine B assay; conditions: Homo sapiens, EKVX, 48 h; for CC50: read-out: LC50 (the source's name)
[31] = tested on: NCI-H322M; assay: Anticancer activity against human NCI-H322M cells after 48 hrs by sulforhodamine B assay; conditions: for GI50: Homo sapiens, NCI-H322M, 48 h
[32] = tested on: OVCAR-8; assay: Anticancer activity against human OVCAR8 cells after 48 hrs by sulforhodamine B assay; conditions: Homo sapiens, OVCAR-8, 48 h
[33] = tested on: NCI-H322M; assay: Anticancer activity against human NCI-H322M cells assessed cell growth at 10 uM after 48 hrs by sulforhodamine B assay relative to control
[34] = tested on: HL-60(TB); assay: Anticancer activity against human HL-60(TB) cells after 48 hrs by sulforhodamine B assay; conditions: for CC50: read-out: LC50 (the source's name)
[35] = tested on: MOLT-4; assay: Anticancer activity against human MOLT4 cells after 48 hrs by sulforhodamine B assay
[36] = tested on: NCI-H23; assay: Anticancer activity against human NCI-H23 cells after 48 hrs by sulforhodamine B assay; conditions: Homo sapiens, NCI-H23, 48 h; for CC50: read-out: LC50 (the source's name)
[37] = tested on: A549; assay: Anticancer activity against human A549 cells assessed cell growth at 10 uM after 48 hrs by sulforhodamine B assay relative to control
[38] = tested on: SK-MEL-5; assay: Anticancer activity against human SK-MEL-5 cells after 48 hrs by sulforhodamine B assay; conditions: Homo sapiens, SK-MEL-5, 48 h; for CC50: read-out: LC50 (the source's name)
[39] = tested on: KM12; assay: Anticancer activity against human KM12 cells assessed cell growth at 10 uM after 48 hrs by sulforhodamine B assay relative to control
[40] = tested on: SF-295; assay: Anticancer activity against human SF295 cells after 48 hrs by sulforhodamine B assay; conditions: Homo sapiens, SF-295, 48 h; for CC50: read-out: LC50 (the source's name)
[41] = tested on: HT-29; assay: Anticancer activity against human HT-29 cells after 48 hrs by sulforhodamine B assay; conditions: for CC50: read-out: LC50 (the source's name)

Compound: CCCCCCCCCCCCCCCC[n+]1ccn(C)c1.[Cl-]
- GI50 ([1]; Homo sapiens, SK-OV-3, 48 h): 1270 nM
- CC50 ([1]; Homo sapiens, SK-OV-3, 48 h): > 100000 nM
- Activity [2]: 17.19%
- Activity [3]: -94.61%
- GI50 ([4]; Homo sapiens, OVCAR-4, 48 h): 594 nM
- CC50 ([4]; Homo sapiens, OVCAR-4, 48 h): 7200 nM
- GI50 ([5]; Homo sapiens, SR, 48 h): 100 nM
- CC50 ([5]; Homo sapiens, SR, 48 h): 4380 nM
- GI50 ([6]; Homo sapiens, HCT-15, 48 h): 1000 nM
- CC50 ([6]; Homo sapiens, HCT-15, 48 h): 4650 nM
- GI50 ([7]; Homo sapiens, MCF7, 48 h): 431 nM
- Activity [8]: -53.71%
- GI50 [9]: 482 nM
- CC50 [9]: 6980 nM
- Activity [10]: -65.21%
- GI50 [11]: 1040 nM
- GI50 [12]: 861 nM
- Activity [13]: -69.96%
- GI50 [14]: 379 nM
- Activity [15]: 9.85%
- GI50 ([16]; Homo sapiens, NCI-H522, 48 h): 1010 nM
- Activity [17]: -65.31%
- GI50 ([18]; Homo sapiens, MDA-MB-468, 48 h): 92 nM
- Activity [19]: -24.76%
- GI50 [20]: 498 nM
- GI50 [21]: 1070 nM
- GI50 [22]: 1110 nM
- CC50 [22]: 7390 nM
- Activity [23]: -98.59%
- GI50 ([24]; Homo sapiens, ACHN, 48 h): 832 nM
- Activity [25]: -45.99%
- Activity [26]: -39.48%
- GI50 [27]: 240 nM
- CC50 [27]: 764 nM
- GI50 ([28]; Homo sapiens, MDA-MB-231, 48 h): 616 nM
- CC50 ([28]; Homo sapiens, MDA-MB-231, 48 h): 4550 nM
- GI50 ([29]; Homo sapiens, UACC-257, 48 h): 1120 nM
- GI50 [30]: 358 nM
- CC50 [30]: 6770 nM
- GI50 [31]: 1740 nM
- GI50 [32]: 865 nM
- Activity [33]: 8.28%
- GI50 ([34]; Homo sapiens, HL-60, 48 h): 131 nM
- CC50 ([34]; Homo sapiens, HL-60, 48 h): 816 nM
- GI50 ([35]; Homo sapiens, MOLT-4, 48 h): 306 nM
- GI50 [36]: 504 nM
- CC50 [36]: > 100000 nM
- Activity [37]: -50.92%
- GI50 [38]: 461 nM
- CC50 [38]: 4190 nM
- Activity [39]: -83.88%
- GI50 [40]: 383 nM
- CC50 [40]: 5020 nM
- GI50 ([41]; Homo sapiens, HT-29, 48 h): 311 nM
- CC50 ([41]; Homo sapiens, HT-29, 48 h): 5060 nM

Compound: CCCCCCCCCCCCCCCCCC[n+]1ccn(C)c1.[Cl-]
- GI50 ([1]; Homo sapiens, SK-OV-3, 48 h): 1240 nM
- CC50 [1]: > 100000 nM
- Activity [2]: 16.78%
- Activity [3]: -52.54%
- GI50 ([4]; Homo sapiens, OVCAR-4, 48 h): 778 nM
- CC50 [4]: > 100000 nM
- GI50 [5]: 154 nM
- CC50 [5]: 3790 nM
- GI50 [6]: 461 nM
- CC50 ([6]; Homo sapiens, HCT-15, 48 h): 4110 nM
- GI50 [7]: 356 nM
- LC50 (50% cell kill) ([7]; Homo sapiens, MCF7, 48 h): 3780 nM
- Activity [8]: -20.19%
- GI50 [9]: 684 nM
- CC50 [9]: 7960 nM
- Activity [10]: -55.64%
- GI50 [11]: 848 nM
- LC50 [11]: 5070 nM
- GI50 [12]: 869 nM
- LC50 [12]: 5990 nM
- Activity [13]: -0.67%
- GI50 [14]: 265 nM
- LC50 [14]: 4900 nM
- Activity [15]: 3.3%
- GI50 [16]: 364 nM
- LC50 ([16]; Homo sapiens, NCI-H522, 48 h): 6450 nM
- Activity [17]: -50.94%
- GI50 [18]: 66 nM
- LC50 ([18]; Homo sapiens, MDA-MB-468, 48 h): 7250 nM
- Activity [19]: -48.71%
- GI50 [20]: 405 nM
- LC50 [20]: 3920 nM
- GI50 [21]: 639 nM
- LC50 (concentration killing 50% of cells) [21]: 10000 nM
- GI50 [22]: 1070 nM
- CC50 [22]: 8940 nM
- Activity [23]: -85.24%
- GI50 [24]: 446 nM
- LC50 ([24]; Homo sapiens, ACHN, 48 h): 4230 nM
- Activity [25]: 1.82%
- Activity [26]: -10.43%
- GI50 [27]: 27 nM
- CC50 [27]: 1210 nM
- GI50 [28]: 449 nM
- CC50 ([28]; Homo sapiens, MDA-MB-231, 48 h): 4860 nM
- GI50 [29]: 125 nM
- LC50 ([29]; Homo sapiens, UACC-257, 48 h): 6770 nM
- GI50 [30]: 649 nM
- CC50 [30]: 7780 nM
- LC50 [31]: 5950 nM
- GI50 [31]: 1300 nM
- GI50 [32]: 998 nM
- LC50 [32]: 7400 nM
- Activity [33]: 5.3%
- GI50 ([34]; Homo sapiens, HL-60, 48 h): 143 nM
- CC50 [34]: 791 nM
- GI50 [35]: 189 nM
- LC50 [35]: 2160 nM
- GI50 [36]: 392 nM
- CC50 [36]: 7720 nM
- Activity [37]: -15.21%
- GI50 [38]: 414 nM
- CC50 [38]: 3970 nM
- Activity [39]: -47.8%
- GI50 [40]: 332 nM
- CC50 [40]: 5590 nM
- GI50 ([41]; Homo sapiens, HT-29, 48 h): 315 nM
- CC50 [41]: 5520 nM
